Assay in all cases: Protein kinase inhibition assay
One experiment deals with AMPK(r). The experiment is classed as biochemical, rat. The note with it: 2.5 μM. As for the experimental part:
(§1) Certain compounds were tested for activity in protein kinase inhibition assays. All substrates were dissolved and diluted to working stocks in de-ionized water, apart from histone H1 (10× working stock in 20 mM MOPS pH 7.0), PDKtide (10× working stock in 50 mM Tris pH 7.0) ATF2 (which is typically stored at a 20× working stock in 50 mM Tris pH 7.5, 150 mM NaCl, 0.1 mM EGTA, 0.03% Brij-35, 50% glycerol, 1 mM benzamidine, 0.2 mM PMSF and 0.1% R-mercaptoethanol), KKLNRTLSFAEPG (SEQ ID NO:203) and RRRLSFAEPG (SEQ ID NO:204) (50 mM HEPES pH 7.4) and GGEEEEYFELVKKKK (SEQ ID NO:205) (20 mM MOPS pH 7.0). All kinases were pre-diluted to a 10× working concentration prior to addition into the assay. The composition of the dilution buffer for each kinase is detailed below.
In a final reaction volume of 25 μl, AMPK (r) (5-10 mU) is incubated with 32 mM HEPES pH 7.4, 0.65 mM DTT, 0.012% Brij-35, 200 μM AMP, 200 μM AMARAASAAALARRR (SEQ ID NO:208), 10 mM MgAcetate and [gamma-33P-ATP] (specific activity approx. 500 cpm/pmol, concentration as required). The reaction is initiated by the addition of the MgATP mix. After incubation for 40 minutes at room temperature, the reaction is stopped by the addition of 5 μl of a 3% phosphoric acid solution. […]

In the next experiment the target is TAK1(h) (Homo sapiens, UniProt O43318). The experiment is classed as biochemical. The note with it: read-out: percent residual activity of TAK1(h). How it is done: as §1
Chain of TAK1(h) (O43318 1-303 limits assumed): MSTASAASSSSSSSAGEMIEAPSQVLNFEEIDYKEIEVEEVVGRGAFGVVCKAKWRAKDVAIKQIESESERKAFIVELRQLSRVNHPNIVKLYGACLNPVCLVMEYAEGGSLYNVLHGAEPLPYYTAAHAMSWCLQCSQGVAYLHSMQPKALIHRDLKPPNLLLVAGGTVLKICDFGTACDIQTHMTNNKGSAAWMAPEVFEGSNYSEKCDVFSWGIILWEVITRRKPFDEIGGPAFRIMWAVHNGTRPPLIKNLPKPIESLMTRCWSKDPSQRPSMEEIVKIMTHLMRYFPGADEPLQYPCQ
(§2) In a final reaction volume of 25 μl, TAK1 (h) (5-10 mU) is incubated with 8 mM MOPS pH 7.0, 0.2 mM EDTA, 2 mg/ml casein, 10 mM MgAcetate and [gamma-33P-ATP] (specific activity approx. 500 cpm/pmol, concentration as required). The reaction is initiated by the addition of the MgATP mix. After incubation for 40 minutes at room temperature, the reaction is stopped by the addition of 5 μl of a 3% phosphoric acid solution. 10 μl of the reaction is then spotted onto a P30 filtermat and washed three times for 5 minutes in 75 mM phosphoric acid and once in methanol prior to drying and scintillation counting.

In another experiment the target is CDK5/p35(h) (Homo sapiens, UniProt Q00535). The experiment is classed as biochemical. To be noted: read-out: percent residual activity of CDK5/p35(h). How it is done:
as §1
as §2, with “μl, CDK5/p35” for “μl, TAK1”, “EDTA, 0.1” for “EDTA, 2”, “mg/ml histone H1,” for “mg/ml casein,”

For a further experiment, the target named is PKCη(h) (Homo sapiens, UniProt P24723). The experiment is classed as biochemical. To be noted: read-out: percent residual activity of PKCη(h). How it is done:
as §1
In a final reaction volume of 25 μl, PKCη (h) (5-10 mU) is incubated with 20 mM HEPES pH 7.4, 0.03% Triton X-100, 0.1 mM CaCl2, 0.1 mg/ml phosphatidylserine, 10 μg/ml diacylglycerol, 50 μM ERMRPRKRQGSVRRRV (SEQ ID NO:234), 10 mM MgAcetate and [gamma-33P-ATP] (specific activity approx. 500 cpm/pmol, concentration as required). The reaction is initiated by the addition of the MgATP mix. After incubation for 40 minutes at room temperature, the reaction is stopped by the addition of 5 μl of a 3% phosphoric acid solution. […]

In another experiment the target is NEK7(h) (Homo sapiens, UniProt Q8TDX7). The experiment is classed as biochemical. The note with it: read-out: percent residual activity of NEK7(h). How it is done: as §1
Chain of NEK7(h) (Q8TDX7 whole entry): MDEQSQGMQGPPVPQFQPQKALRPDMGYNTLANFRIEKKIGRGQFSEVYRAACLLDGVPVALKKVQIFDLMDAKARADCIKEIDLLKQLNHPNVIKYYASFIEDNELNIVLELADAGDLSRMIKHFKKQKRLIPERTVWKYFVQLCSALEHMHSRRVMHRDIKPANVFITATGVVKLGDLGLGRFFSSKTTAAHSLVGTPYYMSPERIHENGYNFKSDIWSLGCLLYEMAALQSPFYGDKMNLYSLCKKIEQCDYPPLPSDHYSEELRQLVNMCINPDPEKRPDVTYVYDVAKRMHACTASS
as §2, with “μl, NEK7” for “μl, TAK1”, “EDTA, 300 μM FLAKSFGSPNRAYKK (SEQ ID NO:221),” for “EDTA, 2 mg/ml casein,”, “10 pi” for “10 μl”

Another experiment concerns the target PDK1(h) (Homo sapiens, UniProt O15530). The experiment is classed as biochemical. The note with it: read-out: percent residual activity of PDK1(h). As for the experimental part:
as §1
In a final reaction volume of 25 μl, PDK1 (h) (5-10 mU) is incubated with 50 mM Tris pH 7.5, 100 μM […] (SEQ ID NO:217) (PDKtide), 0.1% R-mercaptoethanol, 10 mM MgAcetate and [gamma-33P-ATP] (specific activity approx. 500 cpm/pmol, concentration as required). The reaction is initiated by the addition of the MgATP mix. After incubation for 40 minutes at room temperature, the reaction is stopped by the addition of 5 μl of a 3% phosphoric acid solution. […]

Consider two compounds from patent US20070117770A1, “Human ribosomal DNA (rDNA) and ribosomal RNA (rRNA) nucleic acids and uses thereof” (Cylene Pharmaceuticals, Inc., priority 2005, published 2007).

Chain of PKCη(h) (P24723 whole entry): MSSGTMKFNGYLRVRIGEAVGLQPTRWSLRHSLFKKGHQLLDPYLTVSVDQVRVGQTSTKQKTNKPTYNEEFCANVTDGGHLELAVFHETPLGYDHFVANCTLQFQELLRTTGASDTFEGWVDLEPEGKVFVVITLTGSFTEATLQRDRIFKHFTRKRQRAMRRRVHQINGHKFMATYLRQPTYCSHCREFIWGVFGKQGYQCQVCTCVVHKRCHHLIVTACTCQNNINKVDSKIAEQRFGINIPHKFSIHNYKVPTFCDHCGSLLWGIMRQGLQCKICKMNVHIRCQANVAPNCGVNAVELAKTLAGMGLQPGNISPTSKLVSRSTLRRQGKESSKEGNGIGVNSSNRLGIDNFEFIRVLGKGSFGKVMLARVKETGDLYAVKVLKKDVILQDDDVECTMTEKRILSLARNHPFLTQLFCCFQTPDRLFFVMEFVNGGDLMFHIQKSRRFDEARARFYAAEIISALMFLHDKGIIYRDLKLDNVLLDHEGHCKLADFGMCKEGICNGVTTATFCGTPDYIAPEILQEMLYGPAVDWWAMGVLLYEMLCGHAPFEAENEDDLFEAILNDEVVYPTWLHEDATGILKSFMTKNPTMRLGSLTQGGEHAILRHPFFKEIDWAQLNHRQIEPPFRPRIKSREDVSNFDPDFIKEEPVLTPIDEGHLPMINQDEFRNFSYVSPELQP
Chain of CDK5/p35(h) (Q00535 whole entry): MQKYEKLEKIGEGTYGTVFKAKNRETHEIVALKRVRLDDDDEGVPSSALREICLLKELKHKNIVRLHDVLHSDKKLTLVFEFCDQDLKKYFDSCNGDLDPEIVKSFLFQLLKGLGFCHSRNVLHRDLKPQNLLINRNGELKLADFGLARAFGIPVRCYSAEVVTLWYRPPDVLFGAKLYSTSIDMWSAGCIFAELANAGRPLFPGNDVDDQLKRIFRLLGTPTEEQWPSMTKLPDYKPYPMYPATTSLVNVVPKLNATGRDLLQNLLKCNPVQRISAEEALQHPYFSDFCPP
Chain of CDK5/p35(h) (Q15078 whole entry partner): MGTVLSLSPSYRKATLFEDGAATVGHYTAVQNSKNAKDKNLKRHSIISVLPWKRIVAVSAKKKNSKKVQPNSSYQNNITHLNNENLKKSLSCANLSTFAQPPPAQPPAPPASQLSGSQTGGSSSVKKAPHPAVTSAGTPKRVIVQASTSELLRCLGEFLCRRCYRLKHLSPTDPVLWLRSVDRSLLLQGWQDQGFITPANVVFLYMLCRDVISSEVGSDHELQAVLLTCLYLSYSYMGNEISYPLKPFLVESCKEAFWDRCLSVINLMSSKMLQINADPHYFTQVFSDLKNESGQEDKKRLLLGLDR
Chain of PDK1(h) (O15530 whole entry): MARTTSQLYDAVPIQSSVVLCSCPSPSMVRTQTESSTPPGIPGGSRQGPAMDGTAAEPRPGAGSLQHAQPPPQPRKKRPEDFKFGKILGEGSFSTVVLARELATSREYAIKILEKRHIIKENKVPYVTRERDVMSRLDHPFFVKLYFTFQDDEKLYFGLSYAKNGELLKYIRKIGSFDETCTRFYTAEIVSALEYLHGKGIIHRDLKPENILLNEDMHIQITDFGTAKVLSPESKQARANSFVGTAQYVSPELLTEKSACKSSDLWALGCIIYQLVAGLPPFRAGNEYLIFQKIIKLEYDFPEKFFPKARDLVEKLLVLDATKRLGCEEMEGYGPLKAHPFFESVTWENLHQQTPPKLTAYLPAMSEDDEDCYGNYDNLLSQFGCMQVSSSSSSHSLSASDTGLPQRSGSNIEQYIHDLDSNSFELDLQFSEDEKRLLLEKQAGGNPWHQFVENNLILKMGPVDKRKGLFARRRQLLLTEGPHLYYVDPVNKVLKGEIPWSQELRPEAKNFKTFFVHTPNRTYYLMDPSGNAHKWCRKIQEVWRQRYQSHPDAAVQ

As for `CN1CCCC1CCNC(=O)c1cn2c3c(c(N4CCC(c5cnccn5)C4)c(F)cc3c1=O)Oc1cc3ccccc3cc1-2` (stereo not drawn) [Compound A-1], the “percent residual activity of AMPK(r)” value in the experiment with AMPK(r) came to 82%. Moreover, the remaining activity at 2.5 µM was 98% at TAK1(h); 83% at CDK5/p35(h); 80% on PKCη(h); 102% on NEK7(h); 121% at PDK1(h).

For the compound `CC(=O)N1CCN(c2ccc3c(=O)c(C(=O)NCCN4CCCC4)c4n(C)c5ccccc5n4c3n2)CC1` [Compound B-1], the “percent residual activity of AMPK(r)” value in the experiment on AMPK(r) is 95%. The remaining activity at 2.5 µM amounted to 95% on TAK1(h); 104% at CDK5/p35(h); 80% at PKCη(h); 101% at NEK7(h); 109% on PDK1(h).
